Results reported in patent publication US7084158B2, “Substituted propargylamines” (Bayer Cropscience S.A., priority 2001, dated 2006).

Columns and labels:
Format in all cases: in vivo
Design in all cases: key: compounds were considered to be active when, at a concentration of 500 ppm or less, they had an activity on the harmful organisms of 50% or more
[1] = system: Diabrotica undecimpunctata; assay: Example C: corn rootworm eggs with maize corn, mortality; conditions: 500 ppm or less; 4-5-day-old eggs; after 6 days
Spodoptera littoralis = assay: Example G: treated L2 larvae and insect diet, Egyptian cotton leafworm mortality; conditions: 500 ppm or less, after 6 days
Carpocapsa pomonella = assay: Example I: insect diet and L1 larvae sprayed, codling moth mortality; conditions: 500 ppm or less, after 8 days
Procedure: Ten L1 larvae of the codling moth (Carpocapsa pomonella) were placed into a Petri dish filled with insect diet. Insect diet and the larvae used were then sprayed with an aqueous solution of the formulated compound to be examined. The Petri dish was then closed with a lid. After 8 days of storage at about 23° C., the effect of the compound on the larvae was determined (mortality). The compounds of the following examples were active: 60, 70, 1002, 1005.

Ctenocephalides felis = assay: Example M: cat fleas fed with treated cattle blood, mortality; conditions: 500 ppm or less; adult fleas fed blood-preparation mixture; after 48 hours
Procedure: The formulated compound was mixed with defibrinated cattle blood. 10 adult cat fleas (Ctenocephalides felis) were fed with this blood-preparation mixture. After 48 hours at about 38° C., the effect of the compound on the fleas was determined (mortality). The compounds of the following examples were active: 70, 1002, 1004, 1005, 1036, 60, 197, 1057.

Plutella maculipennis [2] = assay: Example P: dipped cabbage leaf, diamondback moth larvae; conditions: 500 ppm or less, after 3 days
Procedure: A cabbage leaf was dipped for about 5 seconds into an aqueous solution of the formulated compound to be examined. After drying, the cabbage leaf treated in this manner was transferred into a container and populated with 10 larvae of the diamondback moth (Plutella maculipennis). The container was then closed with a lid. After 3 days of storage at about 23° C., the effect of the compound on the larvae was determined. The following examples were active: 1036, 70, 60, 209.

Plutella maculipennis [3] = assay: Example W: cabbage plant, root-systemic activity on diamondback moth larvae; conditions: 500 ppm or less; cabbage plant in treated water, populated after one week; after 3 days
Procedure: 2.4 ml of an aqueous solution of the formulated compound to be examined were pipetted into a bottle filled with 21.6 ml of water. A 14-day-old cabbage plant was transferred into the bottle. After one week, the plant was populated with 5 larvae of the diamondback moth (Plutella maculipennis). Plants and animals were then stored in a climatized chamber (23° C., 40–60% relative atmospheric humidity). After 3 days of storage, the root-systemic activity of the compound on the larvae was determined (mortality). The following examples were active: 1036, 70, 60.

Spodoptera exigua [4] = assay: Example X: dipped freeze-dried diet cube, sugar beet armyworm L2 larvae mortality; conditions: 500 ppm or less, after 4 days
Procedure: Insect diet (as freeze-dried cube) was dipped into an aqueous solution of the formulated compound to be examined and then placed into a Petri dish. 10 L2 larvae of the sugar beet armyworm (Spodoptera exigua) were then added. The Petri dish was then closed with a lid. After 4 days of storage at about 23° C., the mortality among the larvae was determined. The following examples were active: 1036, 60.

Spodoptera exigua [5] = assay: Example Y: cotton plants sprayed, cut leaves, sugar beet armyworm mortality; conditions: 500 ppm or less, leaves cut after drying, L2 larvae, after 4 days
Procedure: Cotton plants were sprayed with an aqueous solution of the formulated compound to be examined. After drying, leaves were cut off, placed into a Petri dish and populated with 5 L2 larvae of the sugar beet armyworm (Spodoptera exigua). After 4 days of storage at about 23° C., the mortality among the larvae was determined. The following examples were active: 1036, 70, 60, 1047, 197.

Heliothis virescens = assay: Example AH: sprayed cotton leaves, antifeeding activity on tobacco budworm larvae; conditions: 500 ppm or less, L2 larvae, after 2, 3 and 4 days
Procedure: Cotton leaves were placed into a Petri dish, sprayed with an aqueous solution of the formulated compound to be examined and, after drying, populated with 5 L2 larvae of the American tobacco budworm (Heliothis virescens). After 2, 3 and 4 days of storage at about 25° C., the antifeeding activity of the compound on the larvae was determined. The following examples were active: 1036, 70, 60.

[6] = system: Leptinotarsa decemlineata; assay: Example AI: sprayed potato plant, repellent effect on Colorado beetle larvae; conditions: 500 ppm or less; sprayed plant with untreated plant in a cage; after 1 and 3 days
Text: A potato plant was sprayed with an aqueous solution of the formulated compound to be examined and, together with an untreated plant, placed in a cage. The cage was populated with 100 larvae of the Colorado beetle (Leptinotarsa decemlineata). […] The following examples were active: 1036, 70, 60.

CC1CCN(CC#Cc2cc(C(F)(F)F)cc(C(F)(F)F)n2)CC1 [Example 60]
active: effect on the eggs and hatched larvae (mortality) [1] | effect on the larvae (mortality) (Spodoptera littoralis) | effect on the larvae (mortality) (Carpocapsa pomonella) | effect on the fleas (mortality) (Ctenocephalides felis) | effect on the larvae (Plutella maculipennis [2]) | root-systemic activity on the larvae (mortality) (Plutella maculipennis [3]) | mortality among the larvae (Spodoptera exigua [4]) | mortality among the larvae (Spodoptera exigua [5]) | antifeeding activity on the larvae (Heliothis virescens) | repellent effect on the larvae [6]
